Drawing on patent EP0117060A2, “Methods of screening and amplification in eukaryotic host cells, and nucleotide sequences and expression vectors for use therein” (GENENTECH, INC., priority 1983, dated 1984), this text covers IC50 for one compound.

Holding throughout (type): cell-based, Chinese hamster
Experiment [1] concerns CHO-DUX-B11 (dhfr-) cells transfected with pFR400 (pFR400.1). Nature of the experiment: Growth inhibition by MTX, 3 day cell count assay, pFR400 transfected clone. Conditions: Cricetulus griseus, 72 h; FR400.1 cells (colony from pFR400 transfected dhfr- cells, mutant DHFR 3T6 R400); 3 days, cells counted; read-out: 50 percent inhibition level. The method, then:
(§1) A deficiency of the wild type DHFR as a selectable marker in tissue culture systems is the relatively low degree of MTX resistance conferred upon the transfected cells by the transfected wild type enzyme expression plasmid. […] Individual colonies were isolated from pFR400 or pFDll transfected dhfr- cells and propagated in the absence of MTX. Equal amounts of cells from two clones and of CHO-Kl cells were trypsinized and split into 60 mm dishes. Various levels of MTX were added to each dish, the cells incubated for 3 days, and then counted.
(§2) The pFDll transfected cells were clearly less capable of growing in high levels of MTX than were the CHO-K1 (DHFR^+) cells grown under identical conditions. The level of MTX which inhibits cell growth by 50 percent over the 3 day assay was approximately 3 nM for cells derived from the pFDll transfected colony (pFD11.1) and was 20nM for CHO-K1 cells. In contrast to this, the colony (pFR400.1) isolated from the cells transfected with pFR400, was able to grow in extremely high levels of MTX. The 50 percent inhibition level for FR400.1 cells is approximately 3000 nM.

The test system of another experiment is CHO-K1 cells. The experiment in a line: Growth inhibition by MTX, 3 day cell count assay, untransformed wild type cells. The following applies: Cricetulus griseus, 72 h, CHO-K1 (DHFR+) cells, 3 days, cells counted, read-out: level of MTX which inhibits cell growth by 50 percent over the 3 day assay. On the procedure:
as §1, §2

The subject of experiment [2] is CHO-DUX-B11 (dhfr-) cells transfected with pFD11 (pFD11.1). Nature of the experiment: Growth inhibition by MTX, 3 day cell count assay, pFD11 transfected clone. The following applies: Cricetulus griseus, 72 h; cells from the pFD11 transfected colony (pFD11.1), wild type DHFR plasmid; 3 days, cells counted; read-out: level of MTX which inhibits cell growth by 50 percent over the 3 day assay. The method, then: as §1, §2

The structures appear in SMILES notation.

As to `CN(Cc1cnc2nc(N)nc(N)c2n1)c1ccc(C(=O)N[C@@H](CCC(=O)O)C(=O)O)cc1` [MTX, methotrexate], the IC50 is roughly 3000 nM in experiment [1], 20 nM with CHO-K1 cells and roughly 3 nM in experiment [2].
